We go through 27 compounds from PubChem BioAssay (NCI).

Among the test systems are BT-549 breast; DLD-1 colon; LXFL 529 NSCLC; M19-MEL melanoma; MDA-N; DMS 114 small cell lung; DMS 273 small cell lung; KM20L2 colon; SNB-78 CNS.
Experiment in all cases: DTP human tumour cell line panel, 48 h

The structures appear in SMILES notation. Several values for one entry are separate records, joined by “and”; a condition that tells them apart may be missing. Equal values may be shown once.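 48-hour exposure; five concentrations; linearly interpolated endpoints. GI50 marks 50% less growth. Definition used: TGI = concentration required for complete inhibition of growth.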

In general, TGI refers to the concentration at which net growth stops. Higher therefore signals less potent growth arrest. Consider `CC(=O)Nc1ccc(C(=O)NN2C(=O)C(Cl)C2c2ccc(Cl)cc2)cc1` (configuration not stated), for which the TGI in the test on BT-549 breast, in the test on DLD-1 colon, with LXFL 529 NSCLC and in the test with M19-MEL melanoma was more than 100 µM throughout.

With `C=C1C(=O)C23CC1C[C@H](OC(C)=O)[C@H]2C1(C)C(OC(C)=O)C[C@H](O)C(C)(C)[C@H]1C(=O)[C@@H]3OC(C)=O` (some centres not stated), the TGI in the test on BT-549 breast came to 7.4 µM; with MDA-N it was 10.7 µM.

Broadly, the GI50 is the concentration giving 50% growth inhibition. With `CC(C)=CCCC(C)c1ccc(C)c2c1OCN(CC1CCNCC1)C2` (configuration not stated), in the test on BT-549 breast, the GI50 is 16.9 µM and the TGI is 41.6 µM.

Take `O=c1c2cc(Cl)ccc2oc2ccc(OCCCCCN3CCCCC3)cc12`: in the test with BT-549 breast, the GI50 was 6.26 µM and the TGI is 12.8 µM.

In the case of `Cc1cc(Cl)ccc1NC(=O)CCCC(=O)C1CCCC1=O` (configuration not stated), the TGI in the test with DLD-1 colon, in the test with DMS 114 small cell lung, in the test with DMS 273 small cell lung, in the test with KM20L2 colon, in the test on LXFL 529 NSCLC and in the test with M19-MEL melanoma was more than 100 µM throughout. Besides, in the test on SNB-78 CNS, the TGI is more than 100 µM.

With `CSc1nc(C)c2c(n1)SCC2`, the TGI in the test with BT-549 breast and in the test on MDA-N was more than 10 µM throughout.

For `COc1ccc([N+](=O)[O-])c2c(NCCCN(C)C)c3ccccc3nc12`, the TGI in the test on BT-549 breast was found to be 2.83 µM; in the test on MDA-N, 1.55 µM.

For `O=C(Nc1cc(Cl)c(Cl)cc1Cl)C(=O)C1C=CCS1(=O)=O` (configuration not stated), the TGI in the test with DLD-1 colon, with DMS 114 small cell lung, with DMS 273 small cell lung, with KM20L2 colon, in the test with LXFL 529 NSCLC and with M19-MEL melanoma was more than 100 µM throughout. The compound also returned a TGI in the test with SNB-78 CNS of more than 100 µM.

As to `CC12OC(c3ccccc3)=CC(c3ccc(Cl)cc3)=C1C(c1ccccc1)=CC2=O` (configuration not stated), in the test on BT-549 breast, the GI50 is more than 100 µM and the TGI is more than 100 µM.

For the compound `CCCCCCCCC[C@@H]1CC(=O)OCC2OC(O[C@H](CCCCCCCCC)CC(=O)OCC3OC(O[C@H](CCCCCCCCC)CC(=O)OCC4OC(O1)C(O)C(O)C4O)C(O)C(O)C3O)C(O)C(O)C2O` (some centres not stated), the concentration for total growth inhibition (TGI) stood at 28.2 µM in the test on DLD-1 colon; 24 µM in the test with DMS 114 small cell lung; 21.6 µM in the test on DMS 273 small cell lung; 19.7 µM in the test on KM20L2 colon; 18 µM with LXFL 529 NSCLC; 16.5 µM in the test with M19-MEL melanoma. The total growth inhibition concentration (TGI) in the test on SNB-78 CNS was 34.6 µM.

For `CC[C@H](NC(=O)[C@H](C)NC)C(=O)N1C[C@@H](O)C[C@H]1Cc1c(-c2[nH]c3cc(F)ccc3c2C[C@@H]2C[C@H](O)CN2C(=O)[C@H](CC)NC(=O)[C@H](C)NC)[nH]c2cc(F)ccc12`, in the test with BT-549 breast, the GI50 was 0.569 µM and the TGI is more than 41.8 µM.

As to `O=[N+]([O-])c1cccc(C2N3CCCCC3[C@@H]3c4[nH]c5ccccc5c4CCN23)c1` (some centres not stated), the TGI in the test with DLD-1 colon came out at 29.2 µM; with DMS 114 small cell lung, 22.2 µM; in the test with DMS 273 small cell lung, 26 µM; in the test with KM20L2 colon, 22.9 µM; with LXFL 529 NSCLC, 60.8 µM; with M19-MEL melanoma, 25 µM. In the test with SNB-78 CNS, this compound came in with a TGI of 26.1 µM.

As to `CCN(CC)c1cc2c3c(c1)CCCN3CCC2`, the TGI in the test on MDA-N is more than 10 µM.

Turning to `O=c1c(Oc2ccc(F)cc2F)cc2cnc(NC3CCOCC3)nc2n1C1CCS(=O)(=O)CC1`, in the test with BT-549 breast, the GI50 is more than 25 µM and the TGI was more than 25 µM.

As to `C=CCC(N[C@H](CO)c1ccccc1)c1ccc2ccccc2n1` (some centres not stated), in the test with BT-549 breast, the GI50 was more than 100 µM and the total growth inhibition concentration (TGI) was more than 100 µM.

In the case of `COc1c2nc(CCl)[nH]c(=O)c2c(OC)c2nc(CCl)[nH]c(=O)c12`, the TGI in the test on DLD-1 colon, in the test on DMS 114 small cell lung, with DMS 273 small cell lung, in the test on KM20L2 colon, with LXFL 529 NSCLC and in the test on M19-MEL melanoma was more than 100 µM in each case. Moreover, the TGI in the test on SNB-78 CNS was more than 100 µM.

Take `Cc1nc2sc(C(=O)Nc3cccc(Cl)c3C)c(N)c2cc1C(=O)/C=C/c1ccccc1`: in the test with BT-549 breast, the GI50 was 0.525 µM and the TGI amounted to 1.72 µM.

With `CN[C@@H](C)C(=O)N[C@H](C(=O)N1CCC[C@H]1C(=O)N[C@H]1c2ccccc2C[C@H]1OCC#CC#CCO[C@@H]1Cc2ccccc2[C@@H]1NC(=O)[C@@H]1CCCN1C(=O)[C@@H](NC(=O)[C@H](C)NC)C1CCCCC1)C1CCCCC1`, the GI50 in the test on BT-549 breast was less than 0.01 µM.

As for `COc1cc2c(cc1OCCCOc1cc3c(cc1OC)C(=O)N1C[C@H](F)C[C@H]1C=N3)N=C[C@@H]1C[C@@H](F)CN1C2=O`, in the test on BT-549 breast, the GI50 is 3.36 µM and the TGI stood at 17.9 µM.

For the compound `O=c1ccn(C2OC(CO)C(O)C2F)c(=O)[nH]1` (configuration not stated), in the test on BT-549 breast, the GI50 is more than 85.9 µM and the concentration for total growth inhibition (TGI) was more than 100 µM. The compound further had a TGI with MDA-N of more than 100 µM.

Take `CSc1ccc(C2=NN(C(=O)c3ccc(F)cc3)C(c3ccc(F)cc3)C2)cc1` (configuration not stated): in the test on BT-549 breast, the GI50 was 15.1 µM and the TGI is 30 µM.

In the case of `O=Cc1ccc(-c2cc(C=O)c(-c3cccs3)[nH]2)s1`, in the test on BT-549 breast, the GI50 is more than 100 µM; the TGI is 75 µM and > 100 µM. In the test on MDA-N, the GI50 was 33.7 µM; the TGI is 75 µM and > 100 µM.

For `COc1cc(OC)cc(C2CC(=O)Nc3c2c(C)nn3-c2nc3ccccc3[nH]2)c1` (configuration not stated), in the test on BT-549 breast, the GI50 is 2.46 µM and the TGI was 7.86 µM.

As to `COc1ccc(/C=N\NC(=O)CN2CCN(c3cc4c(cc3F)c(=O)c(C(=O)N/N=C/c3ccc(OC)c(OC)c3)cn4C3CC3)CC2)cc1OC`, in the test with BT-549 breast, the GI50 was 1.78 µM and the TGI came to 3.89 µM.

As to `O=C1c2ccccc2-c2c1c1ccccc1c(=O)n2CCCNCCCn1ccnc1`, in the test on BT-549 breast, the GI50 was 1.07 µM and the TGI amounted to 7.11 µM.

Regarding `CC(O)c1cccc(NCc2c3ccccc3c(=O)n3c2oc2ccccc23)c1` (configuration not stated), in the test on BT-549 breast, the GI50 was 3.95 µM and the TGI turned out to be 14.7 µM.

Turning to `COC(=O)CCc1cc(OC)c2c(c1)C(C(=O)OC)C(c1ccc(OC)c(OC)c1)O2` (configuration not stated), the TGI is more than 100 µM in the test on BT-549 breast; > 100 µM and 23.2 µM in the test with MDA-N.
